{"source": "paper PMC6149889", "about": "“Synthesis, Analysis, Cholinesterase-Inhibiting Activity and Molecular Modelling Studies of 3-(Dialkylamino)-2-hydroxypropyl 4-[(Alkoxy-carbonyl)amino]benzoates and Their Quaternary Ammonium Salts” (Molecules : A Journal of Synthetic Chemistry and Natural …, 2017)", "key": {"[1]": {"target": "AChE (electric eel) (Electrophorus electricus, UniProt O42275)", "sequence (O42275 24-633)": "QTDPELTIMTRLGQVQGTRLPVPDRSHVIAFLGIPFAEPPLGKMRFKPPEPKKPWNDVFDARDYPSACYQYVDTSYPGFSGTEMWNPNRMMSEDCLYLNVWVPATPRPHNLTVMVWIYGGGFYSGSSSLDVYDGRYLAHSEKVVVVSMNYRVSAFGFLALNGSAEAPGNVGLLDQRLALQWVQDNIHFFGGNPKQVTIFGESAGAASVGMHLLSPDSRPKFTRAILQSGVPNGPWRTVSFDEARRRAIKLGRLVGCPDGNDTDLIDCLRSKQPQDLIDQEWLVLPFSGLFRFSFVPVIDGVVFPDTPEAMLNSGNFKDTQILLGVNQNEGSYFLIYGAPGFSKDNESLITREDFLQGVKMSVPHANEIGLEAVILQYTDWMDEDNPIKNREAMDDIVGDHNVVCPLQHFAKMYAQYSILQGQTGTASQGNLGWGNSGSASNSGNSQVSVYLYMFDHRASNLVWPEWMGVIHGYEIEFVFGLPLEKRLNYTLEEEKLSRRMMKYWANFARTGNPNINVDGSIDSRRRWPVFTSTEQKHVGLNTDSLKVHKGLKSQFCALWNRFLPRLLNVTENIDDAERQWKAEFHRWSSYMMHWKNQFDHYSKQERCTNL", "assay": "Ellman assay, 96-well, […] nm", "assay_type": "biochemical"}, "[2]": {"target": "T1, BuChE (equine serum) (Equus caballus, UniProt P81908)", "T1 construct": "gene BCHE", "T1 sequence (P81908 whole entry)": "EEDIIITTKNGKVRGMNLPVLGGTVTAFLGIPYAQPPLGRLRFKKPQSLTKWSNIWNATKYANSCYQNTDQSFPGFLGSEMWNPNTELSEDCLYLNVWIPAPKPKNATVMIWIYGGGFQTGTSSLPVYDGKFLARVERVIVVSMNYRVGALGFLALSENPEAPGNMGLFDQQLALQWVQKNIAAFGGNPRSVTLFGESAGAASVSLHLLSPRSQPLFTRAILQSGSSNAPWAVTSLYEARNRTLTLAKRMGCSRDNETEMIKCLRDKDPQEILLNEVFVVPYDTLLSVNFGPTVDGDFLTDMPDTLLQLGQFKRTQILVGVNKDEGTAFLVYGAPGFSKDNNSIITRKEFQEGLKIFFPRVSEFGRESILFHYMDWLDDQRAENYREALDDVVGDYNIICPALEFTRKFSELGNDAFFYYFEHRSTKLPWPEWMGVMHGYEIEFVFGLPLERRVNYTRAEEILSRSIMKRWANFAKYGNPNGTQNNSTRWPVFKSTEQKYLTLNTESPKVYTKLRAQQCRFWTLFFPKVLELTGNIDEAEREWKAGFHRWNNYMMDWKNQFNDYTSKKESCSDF", "assay": "Ellman assay, 96-well, […] nm", "assay_type": "biochemical"}}, "note": "Like-named read-outs stand apart in the source and are kept apart here."}
{"smiles": "COC(=O)Nc1ccc(C(=O)OCC(O)CN(C)C)cc1", "note": "(stereo not drawn) [5a, (2-Hydroxy-3-{4-[(methoxycarbonyl)amino]benzoyloxy}propyl)dimethylammonium chloride]", "values": [{"measurement": "IC50", "setting": "[1]", "result": "> 100", "unit": "µM"}, {"measurement": "IC50", "setting": "[2]", "result": "> 100", "unit": "µM"}]}
{"smiles": "CCOC(=O)Nc1ccc(C(=O)OCC(O)CN(C)C)cc1", "note": "(stereo not drawn) [5b, (3-{4-[(ethoxycarbonyl)amino]benzoyloxy}-2-hydroxypropyl)dimethylammonium chloride]", "values": [{"measurement": "IC50", "setting": "[1]", "result": "> 100", "unit": "µM"}, {"measurement": "IC50", "setting": "[2]", "result": "> 100", "unit": "µM"}]}
{"smiles": "CCCOC(=O)Nc1ccc(C(=O)OCC(O)CN(C)C)cc1", "note": "(stereo not drawn) [5c, (2-Hydroxy-3-{4-[(propoxycarbonyl)amino]benzoyloxy}propyl)dimethylammonium chloride]", "values": [{"measurement": "IC50", "setting": "[1]; read-out: AChE IC50", "result": "> 100", "unit": "µM"}, {"measurement": "IC50", "setting": "[2]", "result": "> 100", "unit": "µM"}]}
{"smiles": "CCCCOC(=O)Nc1ccc(C(=O)OCC(O)CN(C)C)cc1", "note": "(stereo not drawn) [5d, (3-{4-[(Butoxycarbonyl)amino]benzoyloxy}-2-hydroxypropyl)dimethylammonium chloride]", "values": [{"measurement": "IC50", "setting": "[1]; read-out: AChE IC50", "result": "> 100", "unit": "µM"}, {"measurement": "IC50", "setting": "[2]", "result": "> 100", "unit": "µM"}]}
{"smiles": "CCN(CC)CC(O)COC(=O)c1ccc(NC(=O)OC)cc1", "note": "(stereo not drawn) [5e, Diethyl-(2-hydroxy-3-{4-[(methoxycarbonyl)amino]benzoyloxy}propyl)ammonium chloride]", "values": [{"measurement": "IC50", "setting": "[1]; read-out: AChE IC50", "result": "> 100", "unit": "µM"}, {"measurement": "IC50", "setting": "[2]", "result": "> 100", "unit": "µM"}]}
{"smiles": "CCOC(=O)Nc1ccc(C(=O)OCC(O)CN(CC)CC)cc1", "note": "(stereo not drawn) [5f, (3-{4-[(Ethoxycarbonyl)amino]benzoyloxy}-2-hydroxypropyl)diethylammonium chloride]", "values": [{"measurement": "IC50", "setting": "[1]", "result": "> 100", "unit": "µM"}, {"measurement": "IC50", "setting": "[2]", "result": "> 100", "unit": "µM"}]}
{"smiles": "COC(=O)Nc1ccc(C(=O)OCC(O)C[N+](C)(C)C)cc1", "note": "(stereo not drawn) [6a, (2-Hydroxy-3-{4-[(methoxycarbonyl)amino]benzoyloxy}propyl)trimethylammonium iodide]", "values": [{"measurement": "IC50", "setting": "[1]", "result": "> 100", "unit": "µM"}, {"measurement": "IC50", "setting": "[2]", "result": "> 100", "unit": "µM"}]}
{"smiles": "CC[N+](C)(C)CC(O)COC(=O)c1ccc(NC(=O)OC)cc1", "note": "(stereo not drawn) [6b, Ethyl(2-hydroxy-3-{4-[(methoxycarbonyl)amino]benzoyloxy}propyl)dimethylammonium iodide]", "values": [{"measurement": "IC50", "setting": "[1]; read-out: AChE IC50", "result": 100, "unit": "µM"}, {"measurement": "IC50", "setting": "[2]", "result": "> 100", "unit": "µM"}]}
{"smiles": "COC(=O)Nc1ccc(C(=O)OCC(O)C[N+](C)(C)C(C)C)cc1", "note": "(stereo not drawn) [6c, (2-Hydroxy-3-{4-[(methoxycarbonyl)amino]benzoyloxy}propyl)dimethyl(propan-2-yl)ammonium iodide]", "values": [{"measurement": "IC50", "setting": "[1]", "result": "> 100", "unit": "µM"}, {"measurement": "IC50", "setting": "[2]", "result": "> 100", "unit": "µM"}]}
{"smiles": "CCOC(=O)Nc1ccc(C(=O)OCC(O)C[N+](C)(C)C)cc1", "note": "(stereo not drawn) [6d, (3-{4-[(Ethoxycarbonyl)amino]benzoyloxy}-2-hydroxypropyl)trimethylammonium iodide]", "values": [{"measurement": "IC50", "setting": "[1]; read-out: AChE IC50", "result": "> 100", "unit": "µM"}, {"measurement": "IC50", "setting": "[2]", "result": "> 100", "unit": "µM"}]}
{"smiles": "CCOC(=O)Nc1ccc(C(=O)OCC(O)C[N+](C)(C)CC)cc1", "note": "(stereo not drawn) [6e, (3-{4-[(Ethoxycarbonyl)amino]benzoyloxy}-2-hydroxypropyl)(ethyl)dimethylammonium iodide]", "values": [{"measurement": "IC50", "setting": "[1]", "result": "> 100", "unit": "µM"}, {"measurement": "IC50", "setting": "[2]", "result": "> 100", "unit": "µM"}]}
{"smiles": "CCOC(=O)Nc1ccc(C(=O)OCC(O)C[N+](C)(CC)CC)cc1", "note": "(stereo not drawn) [6f, (3-{4-[(Ethoxycarbonyl)amino]benzoyloxy}-2-hydroxypropyl)diethylmethylammonium iodide]", "values": [{"measurement": "IC50", "setting": "[1]; read-out: AChE IC50", "result": 56, "unit": "µM"}, {"measurement": "IC50", "setting": "[2]", "result": "> 100", "unit": "µM"}]}
{"smiles": "CCCOC(=O)Nc1ccc(C(=O)OCC(O)C[N+](C)(C)C)cc1", "note": "(stereo not drawn) [6g, (2-Hydroxy-3-{4-[(propoxycarbonyl)amino]benzoyloxy}propyl)trimethylammonium iodide]", "values": [{"measurement": "IC50", "setting": "[1]; read-out: AChE IC50", "result": "> 100", "unit": "µM"}, {"measurement": "IC50", "setting": "[2]", "result": "> 100", "unit": "µM"}]}
{"smiles": "CCCOC(=O)Nc1ccc(C(=O)OCC(O)C[N+](C)(CC)CC)cc1", "note": "(stereo not drawn) [6h, Diethyl (2-hydroxy-3-{4-[(propoxycarbonyl)amino]benzoyloxy}propyl)methylammonium iodide]", "values": [{"measurement": "IC50", "setting": "[1]", "result": 58, "unit": "µM"}, {"measurement": "IC50", "setting": "[2]", "result": "> 100", "unit": "µM"}]}
{"smiles": "CCCCOC(=O)Nc1ccc(C(=O)OCC(O)C[N+](C)(C)C)cc1", "note": "(stereo not drawn) [6i, (3-{4-[(Butoxycarbonyl)amino]benzoyloxy}-2-hydroxypropyl)trimethylammonium iodide]", "values": [{"measurement": "IC50", "setting": "[1]", "result": "> 100", "unit": "µM"}, {"measurement": "IC50", "setting": "[2]", "result": "> 100", "unit": "µM"}]}
